The values below come from patent publication US20240172748A1, “A SYNERGISTIC PLANT GROWTH STIMULANT COMPOSITION COMPRISING MELATONIN AND NITROGENOUS COMPOUNDS FOR IMPROVING PLANT GROWTH AND DECREASING BIOTIC-ABIOTIC STRESSES ON PLANTS” (FERTIS INDIA PVT. LTD., priority 2021, published 2024).

What all share (type): in vivo
Test [1] deals with Paddy. Briefly: Percentage of protein in grain, field trial on Paddy. The settings on record: area 10-meter square, 1 gm/liter foliar application. From the text:
Example 11: Percentage of Protein in Grain
(§1) Field trail results on Paddy—Area 10-meter square 1 gm/liter Foliar Application

Test [2] relates to Paddy. Briefly: Total protein content in percentage in grain, field trial on Paddy. The following applies: area 10-meter square, lgm/liter foliar application. The text has this: Example 12: Methionin with Plant Growth Hormone—Total Protein Content in Percentage in Grain
Field trail results on Paddy—Area 10-meter square lgm/liter Foliar Application

Test [3] concerns Paddy. Nature of the test: Micronutrient analysis in grain, field trial on Paddy. The following applies: area 10-meter square, 1 gm/liter foliar application.
Description: Example 9: Micronutrient Analysis in Grain
as §1

On to `O=C(Nc1ccccc1)Nc1ccccc1` [Diphenyl urea], for which, in test [1], the “% of Protein” value was found to be 0.0089%.

Regarding `CNC(=O)NC` [Dimethyl urea], the “% of Protein” value in test [1] is listed as 0.0081%.

Consider `NC(N)=O` [Urea], for which the “% of Protein” value in test [1] is 0.0063%.

`O=CNC(=O)NC=O` [NN DFU, N,N′-Diformyl Urea]: the “% of Protein” value in test [1] was 0.0117%.

On to `C=C1C[C@]23C[C@@]1(O)CC[C@H]2[C@@]12C=C[C@H](O)[C@@](C)(C(=O)O1)[C@H]2[C@@H]3C(=O)O` [Gibberellic acid], for which the “Total Protein content in %” value in test [2] was determined as 0.084%.

Take `COc1ccc2[nH]cc(CCNC(C)=O)c2c1` [Melatonin]: the “Total Protein content in %” value in test [2] was determined as 0.076%. For the same compound, in test [3], the “B (Boron)” value came to 40.30 ppm, the “Ca (Calcium)” value is given as 375.00 ppm, the “Fe (Iron)” value worked out at 300.00 ppm and the “Mg (Magnesium)” value is given as 609.00 ppm. In addition, in test [3], the “Mn (Manganese)” value worked out at 45.00 ppm and the “Zn (Zinc)” value is reported as 36.50 ppm.
